Laboratory results taken from US8921383B2, “Thiazolopyrimidine compounds” (Hoffmann-La Roche Inc., priority 2011, dated 2014).

Target: T1, purified recombinant human SYK360-635 (Homo sapiens, UniProt P43405)
T1 construct: truncated construct of Spleen Tyrosine Kinase aa 360-635; GST; made in house
Assay: SYK kinase assay: 33P γATP incorporation into biotinylated peptide substrate, IC50 determination
Format: biochemical
Details: SYK 0.5 nM, ATP 20 μM, DYE peptide 5 μM, 30° C. 15 min; read-out: IC50 h-syk-gst-sf9-c (inactive-dephosphorylated)
Experimental: Determination of IC50 of Spleen Tyrosine Kinase (SYK) Inhibition:
SYK kinase assay is a standard kinase assay adapted to a 96 well plate format. This assay is performed in 96-well format for IC50 determination with […] which represented 10 half log dilutions and a 40 μL reaction volume. The assay measures the incorporation of radiolabeled ^33P γATP into an N-terminally biotinylated peptide substrate, derived from naturally occurring phosphoacceptor consensus sequence (Biotin-11aa DY*E). Phosphorylated products were detected upon termination of reactions with EDTA and the addition of Streptavidin coated beads.
Assay plates: 96-well MultiScreen 0.65 um filter plates (Millipore Cat. No.: MADVNOB10)
BSA: Bovine Serum Albumin Fraction V, fatty acid free (Roche Diagnostics GmbH, Cat. No. 9100221) diluted to a final concentration of 0.1%
Assay Dilution Buffer (ADB): 50 mM HEPES, 0.1 mM EGTA, 0.1 mM Na Vanadate, 0.1 mM β-glycerophosphate, 10 mM MgCl2, 1 mM DTT, 0.1% BSA, pH 7.5
Bead wash buffer: 10 g/L PBS (Phosphate buffered saline) with 2M NaCl+1% phosphoric acid.
DMSO and the mixture was incubated for 10 min at RT.
The kinase reaction was initiated by the addition of 10 μL 4× substrate cocktail containing the DYE peptide substrate [0 or 5 μM], ATP [20 μM] and ^33PγATP [2 μCi/r×n]. After incubation at 30° C. for 15 min, the reaction was terminated by the transfer of 25 μL of the reaction sample to a 96 well 0.65 μm Millipore MADVNOB membrane/plate containing 200 μL 5 mM EDTA and 20% Streptavidine coated beads in PBS.
After the last wash membrane/plates were transferred to an adaptor plate, heat dried for 15 min at 60° C., and 50 μL scintillation cocktail was added to each well and 4 h later the amount of radioactivity was counted in a top counter.

IC50 [nM]	Structure (SMILES)
40	COc1ccc(Nc2nc(N3CCC(NC(=O)c4ccc(C(=O)O)c(O)c4)C3)nc3scnc23)cc1OC (centres unmarked) [Compound I-9, 4-(1-(7-(3,4-Dimethoxyphenylamino)thiazolo[5,4-d]pyrimidin-5-yl)pyrrolidin-3-ylcarbamoyl)-2-hydroxybenzoic acid]
933	COc1ccc(Nc2nc(N3CCC(NC(=O)c4cnccn4)C3)nc3scnc23)cc1OC (centres unmarked) [Compound I-12, N-(1-(7-(3,4-Dimethoxyphenylamino)thiazolo[5,4-d]pyrimidin-5-yl)pyrrolidin-3-yl)pyrazine-2-carboxamide]
45	COc1ccc(Nc2nc(-c3cccc(C(=O)Nc4ccc(-c5nnc(S)o5)cc4)c3)nc3scnc23)cc1OC [Compound I-15, 3-[7-(3,4-Dimethoxy-phenylamino)-thiazolo[5,4-d]pyrimidin-5-yl]-N-[4-(5-mercapto-[1,3,4]oxadiazol-2-yl)-phenyl]-benzamide]
12	COc1ccc(Nc2nc(-c3cccc(C(=O)Nc4ccc(C(=O)O)c(OC)c4)c3)nc3scnc23)cc1OC [Compound I-16, 4-(3-(7-(3,4-Dimethoxyphenylamino)thiazolo[5,4-d]pyrimidin-5-yl)benzamido)-2-methoxybenzoic acid]
56	COc1ccc(Nc2nc(-c3cccc(C(=O)Nc4ccc5cn[nH]c5c4)c3)nc3scnc23)cc1OC [Compound I-19, 3-[7-(3,4-Dimethoxy-phenylamino)-thiazolo[5,4-d]pyrimidin-5-yl]-N-(1H-indazol-6-yl)-benzamide]
1850	COc1ccc(Nc2nc(N3CCC(C(=O)NCCc4ccncc4)CC3)nc3scnc23)cc1OC [Compound I-21, 1-(7-(3,4-Dimethoxyphenylamino)thiazolo[5,4-d]pyrimidin-5-yl)-N-(2-(pyridin-4-yl)ethyl)piperidine-4-carboxamide]
4880	COc1ccc(Nc2nc(N3CCC(C(=O)NCCc4cc[nH]c(=O)c4)CC3)nc3scnc23)cc1OC [Compound I-22, 1-(7-(3,4-Dimethoxyphenylamino)thiazolo[5,4-d]pyrimidin-5-yl)-N-(2-(2-oxo-1,2-dihydropyridin-4-yl)ethyl)piperidine-4-carboxamide]
2060	COC(=O)c1cccc(-c2nc(Nc3cccc(S(C)(=O)=O)c3)c3ncsc3n2)c1 [Compound I-26, Methyl 3-(7-(3-(methylsulfonyl)phenylamino)thiazolo[5,4-d]pyrimidin-5-yl)benzoate]
4610	CS(=O)(=O)c1cccc(Nc2nc(-c3cccc(C(=O)O)c3)nc3scnc23)c1 [Compound I-27, 3-[7-(3-Methanesulfonyl-phenylamino)-thiazolo[5,4-d]pyrimidin-5-yl]-benzoic acid]

More lines, now with the values behind:

Structure (SMILES)	IC50 [nM]
COc1ccc(Nc2nc(-c3cccc(C(F)=Cc4ccc(C(=O)O)cc4)c3)nc3scnc23)cc1OC (stereo in doubt) [Compound I-31, 4-((E)-2-{3-[7-(3,4-Dimethoxy-phenylamino)-thiazolo[5,4-d]pyrimidin-5-yl]-phenyl}-2-fluoro-vinyl)-benzoic acid]	592
COc1ccc(Nc2nc(-c3cccc(C(=O)O)c3)nc3scnc23)cc1OC [Compound I-1, 3-[7-(3,4-Dimethoxy-phenylamino)-thiazolo[5,4-d]pyrimidin-5-yl]-benzoic acid]	421
COc1ccc(Nc2nc(-c3cccc(C(=O)N4CCCNCC4)c3)nc3scnc23)cc1OC [Compound I-2, [1,4]Diazepan-1-yl-{3-[7-(3,4-dimethoxy-phenylamino)-thiazolo[5,4-d]pyrimidin-5-yl]-phenyl}-methanone]	1110
CNC(=O)c1ccc(NC(=O)c2cccc(-c3nc(Nc4ccc(OC)c(OC)c4)c4ncsc4n3)c2)cc1 [Compound I-3, 3-(7-(3,4-Dimethoxyphenylamino)thiazolo[5,4-d]pyrimidin-5-yl)-N-(4-(methylcarbamoyl)phenyl)benzamide]	71
COc1ccc(Nc2nc(N3CCC(NC(=O)c4ccc5c(c4)NC(=O)C5)C3)nc3scnc23)cc1OC (centres unmarked) [Compound I-8, N-(1-(7-(3,4-Dimethoxyphenylamino)thiazolo[5,4-d]pyrimidin-5-yl)pyrrolidin-3-yl)-2-oxoindoline-6-carboxamide]	882
COc1ccc(Nc2nc(N3CCC(NC(=O)c4ccc(C(=O)O)c(OC)c4)C3)nc3scnc23)cc1OC (centres unmarked) [Compound I-10, 4-(1-(7-(3,4-Dimethoxyphenylamino)thiazolo[5,4-d]pyrimidin-5-yl)pyrrolidin-3-ylcarbamoyl)-2-methoxybenzoic acid]	111
COc1ccc(Nc2nc(N3CCC(NC(=O)c4ccc5cn[nH]c5c4)C3)nc3scnc23)cc1OC (centres unmarked) [Compound I-11, N-(1-(7-(3,4-Dimethoxyphenylamino)thiazolo[5,4-d]pyrimidin-5-yl)pyrrolidin-3-yl)-1H-indazole-6-carboxamide]	406
COc1ccc(Nc2nc(N3CCC(NC(=O)c4ccc(N)nc4)C3)nc3scnc23)cc1OC (centres unmarked) [Compound I-13, 6-Amino-N-{1-[7-(3,4-dimethoxy-phenylamino)-thiazolo[5,4-d]pyrimidin-5-yl]-pyrrolidin-3-yl}-nicotinamide]	566
COc1ccc(Nc2nc(N3CCC(NC(=O)c4ccc5[nH]c(=O)[nH]c5c4)C3)nc3scnc23)cc1OC (centres unmarked) [Compound I-14, N-(1-(7-(3,4-Dimethoxyphenylamino)thiazolo[5,4-d]pyrimidin-5-yl)pyrrolidin-3-yl)-2-oxo-2,3-dihydro-1H-benzo[d]imidazole-5-carboxamide]	487
COc1ccc(Nc2nc(-c3cccc(C(=O)Nc4ccc5[nH]ncc5c4)c3)nc3scnc23)cc1OC [Compound I-18, 3-[7-(3,4-Dimethoxy-phenylamino)-thiazolo[5,4-d]pyrimidin-5-yl]-N-(1H-indazol-5-yl)-benzamide]	980
COc1ccc(Nc2nc(-c3ccc(C(=O)NCCc4ccncc4)cc3)nc3scnc23)cc1OC [Compound I-20, 4-[7-(3,4-Dimethoxy-phenylamino)-thiazolo[5,4-d]pyrimidin-5-yl]-N-(2-pyridin-4-yl-ethyl)-benzamide]	566
COc1ccc(Nc2nc(-c3ccc(C(=O)NCCc4cc[nH]c(=O)c4)cc3)nc3scnc23)cc1OC [Compound I-23, 4-(7-(3,4-Dimethoxyphenylamino)thiazolo[5,4-d]pyrimidin-5-yl)-N-(2-(2-oxo-1,2-dihydropyridin-4-yl)ethyl)benzamide]	930
COc1ccc(Nc2nc(-c3ccc(C(=O)NCCc4ccn(C)c(=O)c4)cc3)nc3scnc23)cc1OC [Compound I-24, 4-[7-(3,4-Dimethoxy-phenylamino)-thiazolo[5,4-d]pyrimidin-5-yl]-N-[2-(1-methyl-2-oxo-1,2-dihydro-pyridin-4-yl)-ethyl]-benzamide]	916
COCC1CCCN1c1cccc(Nc2nc(-c3cccc(C(=O)O)c3)nc3scnc23)c1 (centres unmarked) [Compound I-28, 3-{7-[3-(2-Methoxymethyl-pyrrolidin-1-yl)-phenylamino]-thiazolo[5,4-d]pyrimidin-5-yl}-benzoic acid]	3130
COc1ccc(Nc2nc(-c3cccc(CNc4ccc(C(=O)OC(C)(C)C)cc4)c3)nc3scnc23)cc1OC [Compound I-29, tert-Butyl 4-(3-(7-(3,4-dimethoxyphenylamino)thiazolo[5,4-d]pyrimidin-5-yl)benzylamino)benzoate]	1490
COc1ccc(Nc2nc(-c3cccc(CNc4ccc(C(=O)O)cc4)c3)nc3scnc23)cc1OC [Compound I-30, 4-(3-(7-(3,4-Dimethoxyphenylamino)thiazolo[5,4-d]pyrimidin-5-yl)benzylamino)benzoic acid]	18
COc1ccc(Nc2nc(-c3cccc(/C=C/c4ccc(C(=O)O)cc4)c3)nc3scnc23)cc1OC [Compound I-32, (E)-4-(3-(7-(3,4-Dimethoxyphenylamino)thiazolo[5,4-d]pyrimidin-5-yl)styryl)benzoic acid]	60
COc1ccc(Nc2nc(-c3cccc(CCc4ccc(C(=O)O)cc4)c3)nc3scnc23)cc1OC [Compound I-33, 4-(3-(7-(3,4-Dimethoxyphenylamino)thiazolo[5,4-d]pyrimidin-5-yl)phenethyl)benzoic acid]	350
O=C(O)c1cccc(-c2nc(Nc3cccc(N4C[C@H]5CC[C@@H](C4)O5)c3)c3ncsc3n2)c1 [Compound I-34, 3-{7-[(1R,5S)-3-(8-Oxa-3-aza-bicyclo[3.2.1]oct-3-yl)-phenylamino]-thiazolo[5,4-d]pyrimidin-5-yl}-benzoic acid]	2470
COc1ccc(Nc2nc(N3CCC(NC(=O)c4ccc5[nH]ncc5c4)C3)nc3scnc23)cc1OC (centres unmarked) [Compound I-35, N-(1-(7-(3,4-Dimethoxyphenylamino)thiazolo[5,4-d]pyrimidin-5-yl)pyrrolidin-3-yl)-1H-indazole-5-carboxamide]	418
